According to ChEMBL document CHEMBL1152299, “Indazole-based liver X receptor (LXR) modulators with maintained atherosclerotic lesion reduction activity but diminished stimulation of hepatic triglyceride synthesis” (J Med Chem, 2008):
Active and inactive are the calls of the source. The rule behind the calls is not given here.

Legend:
[1] = biological target: T1, Retinoid X receptor (Homo sapiens, UniProt P28702+P48443+P19793); assay: (§1) Displacement of radiolabeled 9-cis retinoic acid from human RXR by scintillation proximity assay; type: protein assay
T1 sequence (P28702 whole entry): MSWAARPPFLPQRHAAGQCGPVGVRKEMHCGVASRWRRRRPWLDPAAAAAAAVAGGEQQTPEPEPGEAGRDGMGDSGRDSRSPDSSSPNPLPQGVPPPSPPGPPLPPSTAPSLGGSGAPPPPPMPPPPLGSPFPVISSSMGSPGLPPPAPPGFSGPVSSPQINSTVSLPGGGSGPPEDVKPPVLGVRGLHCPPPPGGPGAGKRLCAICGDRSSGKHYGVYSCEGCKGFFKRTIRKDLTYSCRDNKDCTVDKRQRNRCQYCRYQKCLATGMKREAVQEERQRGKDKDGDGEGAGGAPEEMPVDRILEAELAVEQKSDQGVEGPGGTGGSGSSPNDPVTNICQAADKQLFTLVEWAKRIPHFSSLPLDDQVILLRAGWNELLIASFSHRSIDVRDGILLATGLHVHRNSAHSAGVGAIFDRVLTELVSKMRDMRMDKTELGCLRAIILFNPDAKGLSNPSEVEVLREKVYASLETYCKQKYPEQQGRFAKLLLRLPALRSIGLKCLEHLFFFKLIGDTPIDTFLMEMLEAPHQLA
T1 sequence (P48443 whole entry): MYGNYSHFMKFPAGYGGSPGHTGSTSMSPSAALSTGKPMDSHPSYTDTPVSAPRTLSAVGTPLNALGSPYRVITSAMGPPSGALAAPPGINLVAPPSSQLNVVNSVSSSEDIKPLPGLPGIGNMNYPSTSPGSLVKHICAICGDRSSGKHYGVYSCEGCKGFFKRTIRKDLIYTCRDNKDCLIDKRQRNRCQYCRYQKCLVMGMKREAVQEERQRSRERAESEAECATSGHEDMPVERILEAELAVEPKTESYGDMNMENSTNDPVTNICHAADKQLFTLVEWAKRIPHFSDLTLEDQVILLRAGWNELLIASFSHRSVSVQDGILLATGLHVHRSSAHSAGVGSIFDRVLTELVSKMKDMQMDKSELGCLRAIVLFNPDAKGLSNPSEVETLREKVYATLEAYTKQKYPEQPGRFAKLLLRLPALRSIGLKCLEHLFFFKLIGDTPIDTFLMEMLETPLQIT
T1 sequence (P19793 whole entry): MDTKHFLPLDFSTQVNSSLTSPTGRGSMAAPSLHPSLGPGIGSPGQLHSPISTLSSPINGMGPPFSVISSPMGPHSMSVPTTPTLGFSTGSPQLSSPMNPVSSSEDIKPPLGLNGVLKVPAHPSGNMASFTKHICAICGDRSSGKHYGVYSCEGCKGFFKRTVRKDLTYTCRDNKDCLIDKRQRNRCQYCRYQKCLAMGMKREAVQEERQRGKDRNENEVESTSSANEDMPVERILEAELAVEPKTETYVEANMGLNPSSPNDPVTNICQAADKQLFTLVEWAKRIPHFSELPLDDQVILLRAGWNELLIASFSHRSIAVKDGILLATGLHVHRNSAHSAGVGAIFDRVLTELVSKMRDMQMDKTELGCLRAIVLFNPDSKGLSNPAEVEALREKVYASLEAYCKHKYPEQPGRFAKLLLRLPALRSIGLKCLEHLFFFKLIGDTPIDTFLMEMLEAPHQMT

[2] = biological target: T2, Androgen receptor (Homo sapiens, UniProt P10275); assay: (§2) Displacement of radiolabeled mibolerone from human androgen receptor by filter paper assay
T2 sequence (P10275 whole entry): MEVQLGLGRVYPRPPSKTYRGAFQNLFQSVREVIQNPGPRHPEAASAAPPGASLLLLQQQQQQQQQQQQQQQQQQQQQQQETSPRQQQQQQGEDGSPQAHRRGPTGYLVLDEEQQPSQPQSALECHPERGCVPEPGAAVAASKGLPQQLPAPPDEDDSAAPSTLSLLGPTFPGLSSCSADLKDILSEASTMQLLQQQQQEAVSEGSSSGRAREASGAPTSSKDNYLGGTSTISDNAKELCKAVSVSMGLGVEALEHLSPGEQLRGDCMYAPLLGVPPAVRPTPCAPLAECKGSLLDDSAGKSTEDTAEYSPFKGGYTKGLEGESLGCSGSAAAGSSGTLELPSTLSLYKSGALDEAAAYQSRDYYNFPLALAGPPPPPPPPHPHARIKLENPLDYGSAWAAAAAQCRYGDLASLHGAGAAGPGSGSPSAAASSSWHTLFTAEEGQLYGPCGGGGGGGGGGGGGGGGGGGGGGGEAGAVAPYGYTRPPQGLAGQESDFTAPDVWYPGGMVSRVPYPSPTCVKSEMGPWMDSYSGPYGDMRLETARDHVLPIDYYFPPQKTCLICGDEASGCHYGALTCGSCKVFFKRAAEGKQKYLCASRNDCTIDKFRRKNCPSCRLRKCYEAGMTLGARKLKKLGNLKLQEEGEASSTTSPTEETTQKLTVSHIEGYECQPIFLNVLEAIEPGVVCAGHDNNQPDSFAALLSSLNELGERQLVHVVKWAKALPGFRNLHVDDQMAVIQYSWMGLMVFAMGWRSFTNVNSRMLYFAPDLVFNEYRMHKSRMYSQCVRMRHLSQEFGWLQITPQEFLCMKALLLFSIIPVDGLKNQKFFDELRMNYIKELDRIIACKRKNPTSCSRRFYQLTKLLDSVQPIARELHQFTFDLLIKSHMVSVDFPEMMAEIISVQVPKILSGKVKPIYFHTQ

[3] = biological target: Retinoid X receptor (Homo sapiens) (UniProt P28702+P48443+P19793); assay: as §1; type: protein assay
[4] = biological target: T3, Androgen receptor (Homo sapiens) (UniProt P10275); assay: as §2
T3 sequence (whole entry): T2 sequence (P10275 whole entry)

SMILES | IC50 [1] [µM] | IC50 [2] [µM] | Activity [3] | Activity [4]
Fc1ccc(-c2c3cccc(C(F)(F)F)c3nn2Cc2ccc(F)cc2Cl)cc1 [LXR-623] | > 10 | 2.3 |  | 
Fc1ccc(-c2c3cccc(C(F)(F)F)c3nn2Cc2ccccc2F)cc1 |  |  | inactive | inactive
